The results in this text go back to US10357036B2, “Compounds for controlling arthropods” (priority 2015, dated 2019).

Where two headings read alike, the source gives them in different places.

Data set [1] concerns Ctenocephalides felis. Nature of the data set: Ctenocephalides felis in vitro contact test with adult cat fleas. Conditions: application rate 5 μg/cm^2 (=500 g/ha); after 48 h; dead or moribund fleas. The class given is in vivo. A digest of the protocol:
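After 48 h at room temperature and ambient humidity, adult cat fleas (5–10 per tube) were scored, with motionless or uncoordinated fleas counted dead or moribund. Tubes had been coated with acetone solutions of compound, the 900 ppm solution giving 5 μg/cm². Efficacy: 100% means all fleas dead or moribund, 0% none harmed.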

The test system of data set [2] is cattle ticks (Boophilus microplus) Parkhurst strain, SP-resistant. Briefly: Boophilus microplus dip test. In kind it is in vivo. To be noted: 100 ppm; assessed after 7 days. On the procedure: • Test animals: cattle ticks (Boophilus microplus) Parkhurst strain, SP-resistant • Solvent: dimethyl sulfoxide
10 mg of active ingredient are dissolved in 0.5 ml of dimethyl sulfoxide. To produce a suitable formulation, the active ingredient solution is diluted with water to the concentration desired in each case.
This active ingredient formulation is pipetted into tubes. 8-10 engorged adult female cattle ticks (Boophilus microplus) are transferred into a further tube with holes. The tube is immersed into the active ingredient formulation, and all the ticks are completely wetted. After the liquid has run out, the ticks are transferred on filter discs into plastic dishes and stored in a climate-controlled room.
Efficacy is assessed after 7 days by laying of fertile eggs. Eggs which are not visibly fertile are stored in a climate-controlled cabinet until the larvae hatch after about 42 days. An efficacy of 100% means that none of the ticks has laid any fertile eggs; 0% means that all the eggs are fertile.

The next data set concerns Boophilus microplus. Briefly: Boophilus microplus injection test. In kind it is in vivo. Conditions: 20 μg/animal; assessed after 7 days. On the procedure: (§1) • Solvent: dimethyl sulfoxide
1 μl of the active ingredient solution is injected into the abdomen of 5 engorged adult female cattle ticks (Boophilus microplus). The animals are transferred into dishes and kept in a climate-controlled room.

In data set [3] the test system is Ctenocephalides felis. Nature of the data set: Ctenocephalides felis oral test. In kind it is in vivo. Conditions: 100 ppm in citrated cattle blood; after 2 days.
In another data set the test system is Spodoptera frugiperda. Nature of the data set: Spodoptera frugiperda spray test. To be noted: 100 g/ha, after 7 days; for pest or weed control at 100 g/ha: Spodoptera frugiperda, 168 h, read-out: efficacy. In kind it is in vivo.
The test system of data set [4] is Tetranychus urticae. Briefly: Tetranychus urticae spray test, OP-resistant (bean plants). The class given is in vivo. To be noted: 4 ppm; after 7 days. Here is the method:
To produce further test concentrations, the latter is diluted with emulsifier-containing water. When addition of ammonium salts and/or penetrants is required, these are each added at a concentration of 1000 ppm to the preparation solution.
Bean plants (Phaseolus vulgaris), which are heavily infested by all stages of the greenhouse red spider mite (Tetranychus urticae), are treated by being sprayed with the active compound preparation at the desired concentration.

The test system of the next data set is Phaedon cochleariae. Briefly: Phaedon cochleariae spray test. Conditions: for efficacy: 100 g/ha, after 7 days.
Another data set deals with Rhipicephalus sanguineus. Briefly: Rhipicephalus sanguineus in vitro contact test with adult brown dog ticks. In kind it is in vivo. To be noted: application rate 5 μg/cm^2 (=500 g/ha); after 48 h; dead or moribund ticks. The method, boiled down:
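Efficacy, as % of ticks dead or moribund, was judged 48 h after placing 5-10 adult brown dog ticks in acetone-coated tubes (5 μg/cm^2 from 900 ppm) kept dark at room temperature. Ticks unable to climb away from a 45-50° C hotplate within 5 min counted as affected.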

Another data set deals with Musca domestica. Nature of the data set: Musca domestica test. The class given is in vivo. Conditions: 100 ppm; adult houseflies; after 2 days. Here is the method: as §1
To produce a suitable active ingredient formulation, 10 mg of active ingredient are mixed with 0.5 ml of dimethyl sulfoxide, and the concentrate is diluted with water to the desired concentration.
Vessels containing a sponge treated with sugar solution and the active ingredient formulation of the desired concentration are populated with 10 adult houseflies (Musca domestica).

Another data set relates to Meloidogyne incognita. Briefly: Meloidogyne incognita test. In kind it is in vivo. Conditions: 20 ppm; after 14 days. Here is the method:
• Solvent: 125.0 parts by weight of acetone
To produce a suitable active compound preparation, 1 part by weight of active compound is mixed with the stated amount of solvent and the concentrate is diluted to the desired concentration with water.
Vessels are filled with sand, active compound solution, an egg/larvae suspension of the southern root-knot nematode (Meloidogyne incognita) and lettuce seeds. The lettuce seeds germinate and the plants develop. The galls develop on the roots.
After 14 days, the nematicidal efficacy in % is determined by the formation of galls. 100% means that no galls were found; 0% means that the number of galls on the treated plants corresponds to the untreated control.

For data set [5], the system named is Tetranychus urticae. Nature of the data set: Tetranychus urticae spray test, OP-resistant (bean leaf discs). In kind it is in vivo. Conditions: 100 g/ha; after 6 days. On the procedure: (§2) After 6 days, the efficacy in % is determined.
The next data set concerns Myzus persicae. Nature of the data set: Myzus persicae spray test (Chinese cabbage leaf discs). The class given is in vivo. Conditions: 100 g/ha; after 6 days. On the procedure:
as §2

The mark [6] stands for this setting: reversed-phase C18 HPLC column, logP, HPLC, C18, acetonitrile/water with formic acid (note a).
[7] abbreviates: reversed-phase C18 HPLC column, logP^a, HPLC-MS method a).

With `O=C(NCc1cc(-c2cn(-c3c(Cl)cc(C(F)(C(F)(F)F)C(F)(F)F)cc3Cl)cn2)ccc1F)C1CC1` [I-T2-04], the efficacy in the data set with Ctenocephalides felis [1] came out at 100%; in the data set on Spodoptera frugiperda it was 83%; in the data set with Tetranychus urticae [4], 100%; with Phaedon cochleariae, 100%. Further, the “efficacy (laying of fertile eggs)” value (in [2]; in the data set with Boophilus microplus) was 100% throughout. The “efficacy (rate of extermination)” value with Ctenocephalides felis [3] is 100%.
With `CCC(=O)NCc1cccc(-c2cnn(-c3c(Cl)cc(C(F)(C(F)(F)F)C(F)(F)F)cc3Cl)c2)c1` [Ia-08], the efficacy in the data set on Ctenocephalides felis [1] is on record as 100%; in the data set on Rhipicephalus sanguineus it was 80%; in the data set with Spodoptera frugiperda it was 100%; in the data set with Tetranychus urticae [5], 90%; with Phaedon cochleariae it was 100%. The “efficacy (laying of fertile eggs)” value with Boophilus microplus amounted to 100%. Further, the “efficacy (rate of extermination)” value in the data set on Ctenocephalides felis [3] is 100%; with Musca domestica it was 80%. In the data set on Meloidogyne incognita, the “nematicidal efficacy (formation of galls)” value (shortened to “nematicidal efficacy”) is reported as 100%.
Turning to `CCC(=O)NCc1cc(-c2cnn(-c3c(Cl)cc(C(F)(C(F)(F)F)C(F)(F)F)cc3SC)c2)ccc1F` [Ia-10, N-(5-{1-[2-chloro-4-(1,1,1,2,3,3,3-heptafluoropropan-2-yl)-6-(methylsulfanyl)phenyl]-1H-pyrazol-4-yl}-2-fluorobenzyl)propanamide], the efficacy in the data set on Ctenocephalides felis [1], with Rhipicephalus sanguineus and in the data set with Tetranychus urticae [5] was 100% each time. In addition, the “efficacy (laying of fertile eggs)” value with Boophilus microplus is recorded as 100%. In addition, the “efficacy (rate of extermination)” value with Ctenocephalides felis [3] and with Musca domestica was 100% in each case. The pest or weed control at 100 g/ha in the data set on Spodoptera frugiperda was 100%; in the data set with Phaedon cochleariae (Phaedon cochleariae, 168 h, read-out: efficacy), 100%. The chromatographic logP – broadly, a lipophilicity value derived from retention on a column – is 4.29 under setting [6] and 4.29 under setting [7].
Turning to `CC(=O)NCc1cc(-c2cnn(-c3c(Cl)cc(C(F)(C(F)(F)F)C(F)(F)F)cc3Cl)c2)ccc1F` [Ia-15], the efficacy in the data set on Ctenocephalides felis [1] came to 100%; with Rhipicephalus sanguineus it was 100%; in the data set with Myzus persicae, 90%; with Spodoptera frugiperda, 100%; with Tetranychus urticae [5], 100%; with Phaedon cochleariae it was 100%. Moreover, the “efficacy (laying of fertile eggs)” value in [2] is listed as 90%; in the data set on Boophilus microplus, 100%. In addition, the “efficacy (rate of extermination)” value with Ctenocephalides felis [3] and in the data set on Musca domestica was 100% each time. Further, in the data set with Meloidogyne incognita, the “nematicidal efficacy” value turned out to be 90%.
Regarding `O=C(NCc1cc(-c2cnn(-c3c(Cl)cc(C(F)(C(F)(F)F)C(F)(F)F)cc3Cl)c2)ccc1Cl)C1CC1` [Ia-25, N-(2-chloro-5-{1-[2,6-dichloro-4-(1,1,1,2,3,3,3-heptafluoropropan-2-yl)phenyl]-1H-pyrazol-4-yl}benzyl)cyclopropanecarboxamide], the efficacy is recorded as 100% in the data set with Ctenocephalides felis [1] and 80% with Rhipicephalus sanguineus. In addition, the “efficacy (laying of fertile eggs)” value in the data set with Boophilus microplus was determined as 100%. In addition, the “efficacy (rate of extermination)” value in the data set on Ctenocephalides felis [3] and in the data set on Musca domestica was 100% in each case. For the same molecule, in the data set with Spodoptera frugiperda, the pest or weed control at 100 g/ha worked out at 100%. Moreover, the chromatographic logP by setting is: under setting [6], 4.8; under setting [7], 4.8.
`CC(=O)NCc1cc(-c2cnn(-c3c(Cl)cc(C(F)(C(F)(F)F)C(F)(F)F)cc3C(F)F)c2)ccc1F` [Ia-34]: the “nematicidal efficacy” value in the data set with Meloidogyne incognita came to 100%. The efficacy in the data set on Myzus persicae turned out to be 90%; in the data set with Spodoptera frugiperda it was 100%; in the data set with Tetranychus urticae [5] it was 100%; in the data set on Phaedon cochleariae, 100%.
Consider `CC(=O)N(C)Cc1cccc(-c2cnn(-c3c(Cl)cc(C(F)(C(F)(F)F)C(F)(F)F)cc3Cl)c2)c1` [Ia-42], for which the “efficacy (laying of fertile eggs)” value in the data set with Boophilus microplus turned out to be 100%. For the same molecule, the “efficacy (rate of extermination)” value in the data set with Ctenocephalides felis [3] is given as 100%; with Musca domestica it was 80%. In addition, the “nematicidal efficacy” value in the data set on Meloidogyne incognita is 90%. Also, the efficacy in the data set with Tetranychus urticae [5] and with Phaedon cochleariae was 100% in each case.
As to `CCC(=O)NCc1cc(-c2cnn(-c3c(Cl)cc(C(F)(C(F)(F)F)C(F)(F)F)cc3OC(F)F)c2)ccc1Cl` [Ia-51], the efficacy in the data set on Ctenocephalides felis [1] is 100%; with Rhipicephalus sanguineus, 100%; in the data set with Spodoptera frugiperda, 100%; with Tetranychus urticae [4] it was 99%; in the data set on Phaedon cochleariae, 100%. Moreover, the “efficacy (laying of fertile eggs)” value (in data set [2]; in the data set with Boophilus microplus) was 100% each time. Moreover, the “efficacy (rate of extermination)” value with Ctenocephalides felis [3] and with Musca domestica was 100% each time.
On to `CC(=O)NCc1cc(-c2cnn(-c3c(Cl)cc(C(F)(C(F)(F)F)C(F)(F)F)cc3C(F)(F)F)c2)ccc1Cl` [Ia-55], for which the efficacy in the data set with Ctenocephalides felis [1] is on record as 70%; in the data set on Rhipicephalus sanguineus, 100%; in the data set on Spodoptera frugiperda, 100%; in the data set on Tetranychus urticae [4], 99%; in the data set on Phaedon cochleariae, 100%. In the data set with Boophilus microplus, the “efficacy (laying of fertile eggs)” value came to 100%. Also, the “efficacy (rate of extermination)” value with Ctenocephalides felis [3] and in the data set with Musca domestica was 100% in each case.
In the case of `CC(=O)NCc1cc(-c2cnn(-c3c(Cl)cc(C(F)(C(F)(F)F)C(F)(F)F)cc3OC(F)(F)F)c2)ccc1Cl` [Ia-57], the efficacy in the data set with Rhipicephalus sanguineus is recorded as 80%; in the data set with Spodoptera frugiperda, 100%; with Tetranychus urticae [4], 99%; in the data set with Phaedon cochleariae it was 100%. Besides, the “efficacy (laying of fertile eggs)” value in the data set on Boophilus microplus stood at 100%. For the same molecule, the “efficacy (rate of extermination)” value with Ctenocephalides felis [3] and in the data set with Musca domestica was 100% each time.
Regarding `CC(=O)NCc1cccc(-c2cnn(-c3c(Cl)cc(C(F)(C(F)(F)F)C(F)(F)F)cc3C#N)c2)c1` [Ia-102], the “nematicidal efficacy” value in the data set on Meloidogyne incognita is on record as 100%. The efficacy in the data set on Tetranychus urticae [5] amounted to 90%; in the data set with Phaedon cochleariae, 100%.
Regarding `CC(=O)NCc1cc(-c2cnn(-c3c(Cl)cc(C(F)(C(F)(F)F)C(F)(F)F)cc3C#N)c2)ccc1F` [Ia-105], the “nematicidal efficacy” value in the data set with Meloidogyne incognita is on record as 90%. The efficacy in the data set on Myzus persicae is listed as 90%; in the data set on Spodoptera frugiperda, 100%; with Tetranychus urticae [5], 100%; in the data set with Phaedon cochleariae, 100%.
Consider `CC(=O)N(C)Cc1cc(-c2cnn(-c3c(Cl)cc(C4(C(F)(F)F)CC4)cc3Cl)c2)ccc1F` [Ia-125], for which, in the data set on Meloidogyne incognita, the “nematicidal efficacy” value is listed as 100%.
Consider `CCC(=O)NCc1c(F)ccc(-c2cnn(-c3c(Cl)cc(C(F)(C(F)(F)F)C(F)(F)F)cc3C(F)F)c2)c1F` [Ia-141], for which the efficacy with Rhipicephalus sanguineus, in the data set on Spodoptera frugiperda, with Tetranychus urticae [5] and in the data set on Phaedon cochleariae was 100% each time. Moreover, the “efficacy (laying of fertile eggs)” value in the data set with Boophilus microplus turned out to be 100%. Moreover, the “efficacy (rate of extermination)” value in the data set on Ctenocephalides felis [3] and with Musca domestica was 100% throughout. In addition, in the data set on Meloidogyne incognita, the “nematicidal efficacy” value was 90%.
